The values that follow are results of earlier work, collected in the CATMoS acute toxicity set (Mansouri et al. 2021).

Structures are written as SMILES. “And” between values parts separate entries of the source, which are not always exact repeats. Identical values can stand only once.

The nature of this data set: rat acute oral toxicity. Particulars: in vivo.
The LD50 is the dose at which mortality reaches 50%. As for `COc1cccc(O)c1`, the LD50 is 597 mg/kg.
For the compound `CC(C)(C)NCCO`, the LD50 is 1620 mg/kg.
In the case of `CCOC(=O)CC(CC(=O)OCC)(OC(C)=O)C(=O)OCC`, the LD50 is 7000 mg/kg.
With `C#CCOC(=O)/C=C(C)/C=C/CC(C)CCCC(C)C` (centres undefined), the 50% lethal dose (LD50) is 4900 mg/kg.
`C=C(C)C(=O)OCCSCCCC`: the LD50 is 5300 mg/kg.
On to `O=S1(=O)CCC(Br)C1` (centres undefined), for which the median lethal dose (LD50) is 215 mg/kg.
As for `CC1(C)Cc2cccc(OC(=O)NCSc3ccc(Cl)cc3)c2O1`, the LD50 is 25 mg/kg.
In the case of `CN(C1CCCCC1)C1CCCCC1`, the LD50 was 446 mg/kg.
Turning to `C[C@@H]1CCCCN1N=O`, the LD50 was 600 mg/kg.
As to `Cc1cc(N)n(-c2ccccc2)n1`, the LD50 is 2500 mg/kg.
For `FC(F)(Cl)C(Cl)Cl`, the LD50 was 3290 mg/kg.
Regarding `N#CC=CCCC#N`, the LD50 was 380 mg/kg.
As to `CCCOC(=O)COc1cccc(C(C)(C)C)c1`, the 50% lethal dose (LD50) is 1800 mg/kg.
With `CCc1ccc(C)[n+](C(C)CCC(C)(C)CC(C)(C)C)c1` (centres undefined), the 50% lethal dose (LD50) was 540 mg/kg.
Turning to `CCCCc1c(C)nc(NCC)nc1OS(=O)(=O)N(C)C`, the LD50 was 4000 mg/kg.
In the case of `CCCCCCCCCCCCSC#N`, the LD50 was 1250 mg/kg.
`CC(COCCN)COCCCN` (centres undefined): the LD50 is 242 mg/kg.
Consider `OCCN1CCCN(CCCN2c3ccccc3C=Cc3ccccc32)CC1`, for which the LD50 was 2410 mg/kg.
On to `CC(C)(C)c1ccc2cc(C(C)(C)C)c(S(=O)(=O)O)cc2c1`, for which the median lethal dose (LD50) was 4240 mg/kg.
In the case of `C=CCc1ccccc1`, the LD50 was 5540 mg/kg.
For `NC(N)=Nc1nc(CSCCC(N)=NS(N)(=O)=O)cs1`, the LD50 was 4050 mg/kg.
On to `CC(N)=[Se]`, for which the LD50 is 10 mg/kg.
Regarding `CN=C(O)O/N=C1/SC(C)OC1C` (centres undefined), the LD50 was 4.5 mg/kg.
Regarding `C=CCNP(=O)(OC=C(Cl)Cl)OC1CCCCC1` (centres undefined), the LD50 was 100 mg/kg.
As for `CNC(=N)NC(=O)Nc1c(C)cccc1C`, the LD50 is 187 mg/kg and 184 mg/kg.
For `CCN(CC)CCN1C(=O)NC(c2ccccc2)(c2ccccc2)C1=O`, the LD50 was 1300 mg/kg.
For the compound `COC(=O)N/N=C/c1c[n+]([O-])c2ccccc2[n+]1[O-]`, the LD50 was 850 mg/kg.
As for `OCCN1CCN(CCC=C2c3ccccc3Sc3ccc(C(F)(F)F)cc32)CC1`, the LD50 was 791 mg/kg.
`CN(N=O)c1ccccc1`: the LD50 was 225 mg/kg.
On to `CCCCN(CCCC)S(=O)(=O)c1ccc(Cl)cc1`, for which the 50% lethal dose (LD50) was 500 mg/kg.
Regarding `CNC(=O)ON=C1SCSC1(C)C`, the LD50 was 0.67 mg/kg.
Consider `FC(F)(F)c1nc2cc(Cl)c(Cl)cc2[nH]1`, for which the LD50 is 7.88 mg/kg.
For the compound `O=C(c1cc2ccccc2o1)N1CCN(Cc2ccccc2)CC1`, the LD50 was 2530 mg/kg.
As for `Cc1cc(-c2ccc(N=Nc3c(S(=O)(=O)O)cc4cc(S(=O)(=O)O)cc(N)c4c3O)c(C)c2)ccc1N=Nc1c(S(=O)(=O)O)cc2cc(S(=O)(=O)O)cc(N)c2c1O`, the LD50 is 6200 mg/kg.
Take `Cc1ccn(C(N)=O)n1`: the LD50 is 830 mg/kg and 1100 mg/kg.
Regarding `Oc1ccc(C(O)CNCCCCCCNCC(O)c2ccc(O)c(O)c2)cc1O` (centres undefined), the LD50 is 10000 mg/kg.
In the case of `CCN(CC)C(=O)c1cc(=O)c2ccccc2o1`, the LD50 is 4000 mg/kg.
In the case of `CCOc1ccccc1OCC(O)CNCCNCC(O)COc1ccccc1OCC` (centres undefined), the LD50 was 560 mg/kg.
Regarding `CCCCC(O)C(N)CC` (centres undefined), the LD50 is 550 mg/kg.
For `CCCCCCCCCCCCCCCCC[N+](C)(C)C`, the LD50 was 3650 mg/kg.
As for `CCOc1ccc(Cc2nc(C)cc3cc(OC)c(OC)cc23)cc1OC`, the LD50 is 1960 mg/kg and 2070 mg/kg.
Regarding `CCN(CC)CCSSCCN(CC)CC`, the 50% lethal dose (LD50) was 340 mg/kg.
Consider `CC/C=C\CC=O`, for which the median lethal dose (LD50) is 1560 mg/kg.
With `O=C1O[C@@H]2[C@@H](O)[C@H](O)O[C@@H]2[C@H]1O`, the LD50 is 10700 mg/kg.
Take `CCCCCC(=O)NP(=O)(OC)SC` (centres undefined): the LD50 was 25 mg/kg.
Consider `Cc1ccc2ccccc2c1`, for which the median lethal dose (LD50) is 1630 mg/kg.
In the case of `CCCOC(=O)c1c[n+](C)c2n(c1=O)C(C)CCC2` (centres undefined), the LD50 is 1810 mg/kg.
With `Cc1cccc(NC(=O)c2ccccc2C(=O)O)c1`, the LD50 was 5230 mg/kg.
As for `CCCC(C)(C)C(=O)Nc1ccc(Cl)cc1`, the LD50 is 2600 mg/kg.
As to `COc1ccc(CC2CNC(=O)N2)cc1OC1CCCC1` (centres undefined), the median lethal dose (LD50) was 600 mg/kg.
With `CCCC/C=C\CCCCCCO`, the LD50 was 11700 mg/kg.
In the case of `CC(C)[N+](C)(CCOC(=O)C1c2ccccc2Oc2ccccc21)C(C)C`, the LD50 is 370 mg/kg.
Take `Nc1cc(Cl)ccc1Oc1ccc(Cl)cc1Cl`: the LD50 is 2290 mg/kg.
Take `C=CC(=O)OCCSCC`: the LD50 was 2500 mg/kg.
For the compound `O=C(OCc1ccccc1)c1sc(Cl)nc1C(F)(F)F`, the LD50 is 5010 mg/kg.
Regarding `COc1ccc(CC(=O)O)cc1`, the LD50 is 1550 mg/kg.
As to `CN(C)S(=O)(=O)c1c(Cl)c(Cl)c(Cl)c2[nH]c(C(F)(F)F)nc12`, the LD50 was 4.77 mg/kg.
Turning to `CCCCOCCOC(=O)CCCCC(=O)OCCOCCCC`, the LD50 is 1100 mg/kg.
In the case of `CCOC(=O)C(Cl)Cc1cc(-n2nc(C)n(C(F)F)c2=O)c(F)cc1Cl` (centres undefined), the LD50 was 5140 mg/kg.
Regarding `O=[N+]([O-])c1ccc(Nc2ccc(O)cc2)c([N+](=O)[O-])c1`, the LD50 was 15600 mg/kg.
Regarding `CCCCCCCCCCCCN(C)C`, the LD50 was 800 mg/kg.
Turning to `C[N+]1(C)CCCC(OC(=O)C(O)(c2ccccc2)c2ccccc2)C1` (centres undefined), the LD50 is 742 mg/kg.
`CCN1C=CC(=C2C(=O)c3ccccc3C2=O)C=C1`: the LD50 was 330 mg/kg.
Turning to `CC(C)(N=C=O)c1cccc(C(C)(C)N=C=O)c1`, the LD50 is 4600 mg/kg.
